Measured values from paper PMC10226132, “First-in-Class Selective Inhibitors of the Lysine Acetyltransferase KAT8” (Journal of Medicinal Chemistry, 2023).

What was measured:
Format in all cases: biochemical
KAT5 = target: T1, KAT5 (Homo sapiens, UniProt Q92993); assay: HotSpot KAT assay, KAT5; details: for inhibition at 200 µM: read-out: % inhibition at 200 μM KAT5 (25 nM), NI = no inhibition
T1 construct: full length human KAT5 (25 nM) and KAT7 (25 nM) were used; purchased Reaction Biology Corporation
T1 sequence (Q92993 whole entry): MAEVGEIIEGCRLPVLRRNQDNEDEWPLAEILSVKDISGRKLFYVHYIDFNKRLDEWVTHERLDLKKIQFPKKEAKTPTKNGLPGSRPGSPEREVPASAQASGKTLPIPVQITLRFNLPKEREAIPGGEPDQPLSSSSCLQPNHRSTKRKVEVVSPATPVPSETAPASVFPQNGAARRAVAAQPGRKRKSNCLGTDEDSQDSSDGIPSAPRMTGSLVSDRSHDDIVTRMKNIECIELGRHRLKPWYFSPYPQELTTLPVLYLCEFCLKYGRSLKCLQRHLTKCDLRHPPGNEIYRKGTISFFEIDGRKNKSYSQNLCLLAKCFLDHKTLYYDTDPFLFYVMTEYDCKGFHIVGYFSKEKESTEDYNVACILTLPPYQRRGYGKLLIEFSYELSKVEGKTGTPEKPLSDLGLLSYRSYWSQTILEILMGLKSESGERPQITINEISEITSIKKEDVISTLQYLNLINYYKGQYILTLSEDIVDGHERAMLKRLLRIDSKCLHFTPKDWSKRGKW
Method: (§1) The effects of the compounds on other KATs were determined using the HotSpot KAT assay (Reaction Biology Corporation, Malvern, PA, USA) according to the supplier’s procedure. The recombinant catalytic domains of human KAT2A (aa 323–837, 15 nM), KAT2B (aa 492–658, 25 nM), KAT3B (aa 1284–1672, 1 nM), KAT6A (aa 488–778, 10 nM), KAT6B (aa 657–1069, 10 nM), and full length human KAT5 (25 nM) and KAT7 (25 nM) were used. Each enzyme was incubated with the relevant histone peptide [H3 peptide for KAT2A, KAT2B, KAT3B, KAT6A, and KAT7 (2.5–5 μM, depending on the KAT isoform); H2A peptide for KAT5 (1.25 μM); H4 peptide for KAT6B (2.5 μM)] as a substrate and radio-isotope-labeled [^3H]Acetyl-CoA (0.2–1.5 μM, depending on the KAT isoform) as an acetyl donor in the assay buffer [50 mM Tris–HCl (pH 8.0), 50 mM NaCl, 0.1 mM EDTA, 1 mM DTT, 0.1 mM PMSF, 1% DMSO] for 1 h at 30 °C in the presence or absence of various compounds (1% DMSO final) titrated in a 2-fold serial dilution starting at 200 μM. Histone peptide acetylation was assessed by liquid scintillation counting using a Tri-Carb 2800TR Liquid Scintillation Analyzer (Perkin Elmer). Experiments were performed in biological triplicates. Signal reduction compared to control was plotted (as inhibition percentage) as a function of compound concentration. In cases in which an IC50 was calculated, the values were fitted by nonlinear regression (GraphPad Prism 8.0).

KAT8 = target: T2, KAT8 (Homo sapiens, UniProt Q9H7Z6); assay: Radioactive KAT8 inhibition assay; details: read-out: IC50 KAT8 (5 nM); enzyme 5 nM; 2-fold serial dilution from 200 μM; NI = no inhibition at 200 μM; mean ± SD of three independent experiments
T2 construct: using the previously purified KAT8 (173–458, 5 nM); 6xHis tag with TEV protease cleavage site (N, cleaved yes); made in house; host or cells: E. coli BL21(DE3)
T2 sequence (Q9H7Z6 173-458): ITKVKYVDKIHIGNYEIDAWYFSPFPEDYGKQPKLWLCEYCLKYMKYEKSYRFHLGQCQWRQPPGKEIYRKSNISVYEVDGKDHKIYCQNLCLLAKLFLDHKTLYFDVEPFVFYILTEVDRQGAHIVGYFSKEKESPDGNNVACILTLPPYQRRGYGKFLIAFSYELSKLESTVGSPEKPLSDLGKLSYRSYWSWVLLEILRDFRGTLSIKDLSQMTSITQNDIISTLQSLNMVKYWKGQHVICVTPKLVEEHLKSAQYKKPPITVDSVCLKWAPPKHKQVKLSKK
Outline: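 Purified KAT8 preincubated 20 min at rt with inhibitor (2-fold dilutions from 200 μM, 1% DMSO), then [3H]Ac-CoA and biotinylated peptide added for 4 h at rt. Product captured on streptavidin scintillant plates and counted. IC50 by nonlinear regression of % inhibition, biological triplicates.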

KAT6A = target: T3, KAT6A (Homo sapiens, UniProt Q92794); assay: HotSpot KAT assay, KAT6A; details: for inhibition at 200 µM: read-out: % inhibition at 200 μM KAT6A (10 nM), NI = no inhibition
T3 construct: KAT6A (aa 488–778, 10 nM); purchased Reaction Biology Corporation
T3 sequence (Q92794 488-778): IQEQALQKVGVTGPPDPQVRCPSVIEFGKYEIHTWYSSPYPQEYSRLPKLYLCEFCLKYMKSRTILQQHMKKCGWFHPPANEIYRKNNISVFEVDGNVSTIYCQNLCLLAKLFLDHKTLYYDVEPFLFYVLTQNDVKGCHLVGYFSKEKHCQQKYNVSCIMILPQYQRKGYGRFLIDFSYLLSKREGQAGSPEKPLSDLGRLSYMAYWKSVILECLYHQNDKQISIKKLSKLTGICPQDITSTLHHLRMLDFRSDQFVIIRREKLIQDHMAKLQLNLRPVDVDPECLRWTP
Method: as §1

KAT2B = target: T4, KAT2B (Homo sapiens, UniProt Q92831); assay: HotSpot KAT assay, KAT2B; details: enzyme 25 nM; NI = no inhibition at 200 μM; mean ± SD of three independent experiments
T4 construct: KAT2B (aa 492–658, 25 nM); purchased Reaction Biology Corporation
T4 sequence (Q92831 492-658): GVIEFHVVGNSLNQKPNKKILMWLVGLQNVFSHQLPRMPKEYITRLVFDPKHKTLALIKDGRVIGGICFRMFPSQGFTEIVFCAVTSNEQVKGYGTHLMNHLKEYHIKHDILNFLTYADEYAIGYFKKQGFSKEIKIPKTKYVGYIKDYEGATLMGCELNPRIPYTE
Outline: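 Radiometric assay: recombinant human catalytic domains (KAT2B aa 492–658, 25 nM; KAT6A aa 488–778, 10 nM; KAT6B aa 657–1069, 10 nM) or full-length KAT7 (25 nM), with H3 peptide (H4 for KAT6B, 2.5 μM) and [3H]acetyl-CoA, pH 8.0, 1 h, 30 °C. Compounds 2-fold from 200 μM; scintillation counting, triplicates, IC50 by nonlinear regression.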

IC50 (KAT5; control compound, read-out: IC50 KAT5 (25 nM)) [µM]	IC50 (KAT8) [µM]	IC50 (KAT6A; read-out: IC50 KAT6A (10 nM), control compound) [µM]	IC50 (KAT2B) [µM]	inhibition at 200 µM (KAT5) [%]	inhibition at 200 µM (KAT6A) [%]	IC50 KAT2B (25 nM) (KAT2B)	Structure (SMILES)
18.3	> 200	15	> 200	–	–	–	CC1=NN(c2ccc(C(=O)O)cc2)C(=O)/C1=C\c1ccc(-c2cc(C)c(C)cc2[N+](=O)[O-])o1 [VII (C646), reference compound]
–	8.1 ± 0.5	–	> 200	18.5 ± 1.3	20.9 ± 0.4	–	O=C(O)c1ccc(N2N=C(c3ccccc3)/C(=C/c3ccc[nH]3)C2=O)cc1 [Compound 34, (Z)-4-(4-((1H-Pyrrol-2-yl)methylene)-5-oxo-3-phenyl-4,5-dihydro-1H-pyrazol-1-yl)benzoic Acid]
–	12.1 ± 0.6	–	> 200	11.3 ± 0.3	0	no inhibition at 200 μM	CC1=NN(c2ccc(C(=O)O)cc2)C(=O)/C1=C\c1ccc[nH]1 [Compound 19, (Z)-4-(4-((1H-Pyrrol-2-yl)methylene)-3-methyl-5-oxo-4,5-dihydro-1H-pyrazol-1-yl)benzoic Acid]
